Measurements from paper PMC7534258, “Novel temporin L antimicrobial peptides: promoting self-assembling by lipidic tags to tackle superbugs” (Journal of Enzyme Inhibition and Medicinal Chemistry, 2020).
Values after ≈ are worked out from the molar mass of the structure shown. Where a SMILES comes first, the peptide text is derived from it. [ ]: non-standard residue; d: D form. The star is where a group is joined. Tridecanoyl = CCCCCCCCCCCCC(=O)*; Undecanoyl = CCCCCCCCCCC(=O)*; Heptanoyl = CCCCCCC(=O)*; Orn = NCCC[C@H](N)C(=O)O; Pentanoyl = CCCCC(=O)*

Assays:
[1] = system: S. aureus ATCC 25923; assay: microbe, parasite or virus in culture
Procedure: (§1) Staphylococcus aureus ATCC 25923, Pseudomonas aeruginosa ATCC 27853 and Klebsiella pneumoniae ATCC BAA-1705 (carbapenemase producer) were obtained from the American Type Culture Collection (Rockville, MD).
(§2) Identification was performed by sub-culturing on Tryptic Soy Agar (TSA, Becton Dickinson) and by biochemical characterisation using the Vitek II system (Biomerieux). The antimicrobial susceptibility testing of all isolates was determined using Vitek II system and results were interpreted according to European Committee on Antimicrobial Susceptibility Testing (EUCAST version 9.0, 2019). P. aeruginosa was cultured in Brain Heart Infusion broth (BHI, OXOID), S. aureus and K. pneumoniae were cultured in Tryptic Soya broth (TSB, OXOID), under aerobic conditions at 37 °C, for 24 h on an orbital shaker at 200 rpm.
(§3) Minimal inhibitory concentrations (MIC) of all the peptides were determined in Mueller–Hinton medium by the broth microdilution assay, following the procedure already described[22]^,[34]. The compounds were added to bacterial suspension in each well yielding a final cell concentration of 1 × 10^6 CFU/ml and a final compound concentration ranging from 0.78 to 100 µM. Negative control wells were set to contain bacteria in Mueller–Hinton broth plus the amount of vehicle (ethanol) used to dilute each compound. Positive controls included vancomycin (2 µg/ml), tobramycin (4 µg/ml), gentamycin (4 µg/ml), and imipenem (8 µg/ml).

[2] = system: Sa1; assay: microbe, parasite or virus in culture; conditions: Staphylococcus aureus, MRSA, read-out: Antimicrobial activity (MIC) Sa1
Procedure: (§4) Clinical strains of P. aeruginosa (Pa1, Pa2 and Pa3), K. pneumoniae (KpCR1, KpCR2 and KpCR3), and S. aureus (Sa1, Sa2 and Sa3) were isolated from bloodstream or pulmonary infections, and belong to a collection of bacterial strains established between 2010 and 2018 at the Department of Molecular Medicine and Medical Biotechnologies (University Federico II, Naples) for research use.
as §2, §3

[3] = system: Sa2; assay: microbe, parasite or virus in culture; conditions: Staphylococcus aureus, MRSA, read-out: Antimicrobial activity (MIC) Sa2
Procedure: as §4, §2, §3

[4] = system: Sa3; assay: microbe, parasite or virus in culture; conditions: Staphylococcus aureus, MRSA, read-out: Antimicrobial activity (MIC) Sa3
Procedure: as §4, §2, §3

[5] = system: P. aeruginosa ATCC 27853; assay: Broth microdilution MIC, reference strain; format: cell-based, Pseudomonas aeruginosa; conditions: 100% growth inhibition after 16–18 h at 37 °C
Procedure: as §1, §2, §3

[6] = system: K. pneumoniae ATCC BAA-1705; assay: Broth microdilution MIC, reference strain; format: cell-based, Klebsiella pneumoniae
Procedure: as §1, §2, §3

[7] = 100% growth inhibition after 16–18 h at 37 °C

Structure (SMILES)	Antimicrobial activity (MIC) P. aeruginosa ATCC 27853 [5] [µM]	Antimicrobial activity (MIC) K. pneumoniae ATCC BAA-1705 [6, 7] [µM]	Antimicrobial activity (MIC) S. aureus ATCC 25923 [1, 7] [µM]	Antimicrobial activity (MIC) S. aureus ATCC 25923 ([1]; ATCC 25923) [µM]	other results
CN[C@H](CC(C)C)C(=O)N[C@H]1C(=O)N[C@@H](CC(N)=O)C(=O)N[C@H]2C(=O)N[C@H]3C(=O)N[C@H](C(=O)N[C@H](C(=O)O)c4cc(O)cc(O)c4-c4cc3ccc4O)[C@H](O)c3ccc(c(Cl)c3)Oc3cc2cc(c3O[C@@H]2O[C@H](CO)[C@@H](O)[C@H](O)[C@H]2O[C@H]2C[C@](C)(N)[C@H](O)[C@H](C)O2)Oc2ccc(cc2Cl)[C@H]1O [Vancomycin]					MIC ([1]; Staphylococcus aureus, ATCC25923, read-out: Antimicrobial activity (MIC) S. aureus ATCC 25923): 2 µg/mL (≈ 1.38 µM); MIC [2]: 2 µg/mL (≈ 1.38 µM); MIC [3]: 1 µg/mL (≈ 0.69 µM); MIC [4]: 2 µg/mL (≈ 1.38 µM)
CCCCCCCCCCCCC(=O)N[C@@H](Cc1ccccc1)C(=O)N[C@H](C(=O)N1CCC[C@H]1C(=O)N[C@@H](Cc1c[nH]c2ccccc12)C(=O)N[C@@H](Cc1ccccc1)C(=O)N[C@@H](CO)C(=O)N[C@@H](CCCCN)C(=O)N[C@@H](Cc1ccccc1)C(=O)N[C@H](CC(C)C)C(=O)N[C@H](CCCCN)C(=O)N[C@@H](CCCNC(=N)N)C(=O)N[C@H](C(=O)N[C@@H](CC(C)C)C(N)=O)[C@@H](C)CC)C(C)C [Compound 5B, CH3(CH2)11CO-Phe-Val-Pro-Trp-Phe-Ser-Lys-Phe-DLeu-DLys-Arg-Ile-Leu-NH2] (Tridecanoyl-FVPWFSKF[dL][dK]RIL-NH2)	> 100	> 100	> 100		
CCCCCCCCCCC(=O)N[C@@H](Cc1ccccc1)C(=O)N[C@H](C(=O)N1CCC[C@H]1C(=O)N[C@@H](Cc1c[nH]c2ccccc12)C(=O)N[C@@H](Cc1ccccc1)C(=O)N[C@@H](CO)C(=O)N[C@@H](CCCCN)C(=O)N[C@@H](Cc1ccccc1)C(=O)N[C@H](CC(C)C)C(=O)NCC(=O)N[C@@H](CCCNC(=N)N)C(=O)N[C@H](C(=O)N[C@@H](CC(C)C)C(N)=O)[C@@H](C)CC)C(C)C [Compound 4A, CH3(CH2)9CO-Phe-Val-Pro-Trp-Phe-Ser-Lys-Phe-DLeu-Gly-Arg-Ile-Leu-NH2] (Undecanoyl-FVPWFSKF[dL]GRIL-NH2)	> 100	> 100	> 100		
CCCCCCCCCCCCC(=O)N[C@@H](Cc1ccccc1)C(=O)N[C@H](C(=O)N1CCC[C@H]1C(=O)N[C@@H](Cc1c[nH]c2ccccc12)C(=O)N[C@@H](Cc1ccccc1)C(=O)N[C@@H](CO)C(=O)N[C@@H](CCCCN)C(=O)N[C@@H](Cc1ccccc1)C(=O)N[C@H](CC(C)C)C(=O)NCC(=O)N[C@@H](CCCNC(=N)N)C(=O)N[C@H](C(=O)N[C@@H](CC(C)C)C(N)=O)[C@@H](C)CC)C(C)C [Compound 5A, CH3(CH2)11CO-Phe-Val-Pro-Trp-Phe-Ser-Lys-Phe-DLeu-Gly-Arg-Ile-Leu-NH2] (Tridecanoyl-FVPWFSKF[dL]GRIL-NH2)	> 100	> 100	> 100		
CC[C@H](C)[C@H](NC(=O)[C@H](CCCNC(=N)N)NC(=O)CNC(=O)[C@@H](CC(C)C)NC(=O)[C@H](Cc1ccccc1)NC(=O)[C@H](CCCCN)NC(=O)[C@H](CO)NC(=O)[C@H](Cc1ccccc1)NC(=O)[C@H](Cc1c[nH]c2ccccc12)NC(=O)[C@@H]1CCCN1C(=O)[C@@H](NC(=O)[C@@H](N)Cc1ccccc1)C(C)C)C(=O)N[C@@H](CC(C)C)C(N)=O [Compound 1A, H-Phe-Val-Pro-Trp-Phe-Ser-Lys-Phe-dLeu-Gly-Arg-Ile-Leu-NH2] (H-FVPWFSKF[dL]GRIL-NH2)	50	50	6.25		
CCCCC(=O)NCCC[C@H](NC(=O)[C@H](CC(C)C)NC(=O)[C@@H](NC(=O)[C@H](CCCNC(=N)N)NC(=O)[C@@H](CCCCN)NC(=O)[C@@H](CC(C)C)NC(=O)[C@H](Cc1ccccc1)NC(=O)[C@H](CCCCN)NC(=O)[C@H](CO)NC(=O)[C@H](Cc1ccccc1)NC(=O)[C@H](Cc1c[nH]c2ccccc12)NC(=O)[C@@H]1CCCN1C(=O)[C@@H](NC(=O)[C@@H](N)Cc1ccccc1)C(C)C)[C@@H](C)CC)C(N)=O [D, H-Phe-Val-Pro-Trp-Phe-Ser-Lys-Phe-DLeu-DLys-Arg-Ile-Leu-Orn(NHCO(CH2)3CH3)-NH2] (H-FVPWFSKF[dL][dK]RIL[Orn](Pentanoyl)-NH2)				25	Antimicrobial activity (MIC) K. pneumoniae ATCC BAA-1705 ([6]; ATCC BAA-1705): 50 µM
CCCCC(=O)N[C@@H](Cc1ccccc1)C(=O)N[C@H](C(=O)N1CCC[C@H]1C(=O)N[C@@H](Cc1c[nH]c2ccccc12)C(=O)N[C@@H](Cc1ccccc1)C(=O)N[C@@H](CO)C(=O)N[C@@H](CCCCN)C(=O)N[C@@H](Cc1ccccc1)C(=O)N[C@H](CC(C)C)C(=O)NCC(=O)N[C@@H](CCCNC(=N)N)C(=O)N[C@H](C(=O)N[C@@H](CC(C)C)C(N)=O)[C@@H](C)CC)C(C)C [Compound 2A, CH3(CH2)3CO-Phe-Val-Pro-Trp-Phe-Ser-Lys-Phe-DLeu-Gly-Arg-Ile-Leu-NH2] (Pentanoyl-FVPWFSKF[dL]GRIL-NH2)				12.5	
CCCCCCC(=O)N[C@@H](Cc1ccccc1)C(=O)N[C@H](C(=O)N1CCC[C@H]1C(=O)N[C@@H](Cc1c[nH]c2ccccc12)C(=O)N[C@@H](Cc1ccccc1)C(=O)N[C@@H](CO)C(=O)N[C@@H](CCCCN)C(=O)N[C@@H](Cc1ccccc1)C(=O)N[C@H](CC(C)C)C(=O)NCC(=O)N[C@@H](CCCNC(=N)N)C(=O)N[C@H](C(=O)N[C@@H](CC(C)C)C(N)=O)[C@@H](C)CC)C(C)C [Compound 3A, CH3(CH2)5CO-Phe-Val-Pro-Trp-Phe-Ser-Lys-Phe-DLeu-Gly-Arg-Ile-Leu-NH2] (Heptanoyl-FVPWFSKF[dL]GRIL-NH2)				12.5	
CCCCCCCCCCC(=O)N[C@@H](Cc1ccccc1)C(=O)N[C@H](C(=O)N1CCC[C@H]1C(=O)N[C@@H](Cc1c[nH]c2ccccc12)C(=O)N[C@@H](Cc1ccccc1)C(=O)N[C@@H](CO)C(=O)N[C@@H](CCCCN)C(=O)N[C@@H](Cc1ccccc1)C(=O)N[C@H](CC(C)C)C(=O)N[C@H](CCCCN)C(=O)N[C@@H](CCCNC(=N)N)C(=O)N[C@H](C(=O)N[C@@H](CC(C)C)C(N)=O)[C@@H](C)CC)C(C)C [Compound 4B, CH3(CH2)9CO-Phe-Val-Pro-Trp-Phe-Ser-Lys-Phe-DLeu-DLys-Arg-Ile-Leu-NH2] (Undecanoyl-FVPWFSKF[dL][dK]RIL-NH2)	> 100	> 100	> 100		
CCCCCCC(=O)NCCC[C@H](NC(=O)[C@H](CC(C)C)NC(=O)[C@@H](NC(=O)[C@H](CCCNC(=N)N)NC(=O)[C@@H](CCCCN)NC(=O)[C@@H](CC(C)C)NC(=O)[C@H](Cc1ccccc1)NC(=O)[C@H](CCCCN)NC(=O)[C@H](CO)NC(=O)[C@H](Cc1ccccc1)NC(=O)[C@H](Cc1c[nH]c2ccccc12)NC(=O)[C@@H]1CCCN1C(=O)[C@@H](NC(=O)[C@@H](N)Cc1ccccc1)C(C)C)[C@@H](C)CC)C(N)=O [E, H-Phe-Val-Pro-Trp-Phe-Ser-Lys-Phe-DLeu-DLys-Arg-Ile-Leu-Orn(NHCO(CH2)5CH3)-NH2] (H-FVPWFSKF[dL][dK]RIL[Orn](Heptanoyl)-NH2)				25	Antimicrobial activity (MIC) K. pneumoniae ATCC BAA-1705 ([6]; ATCC BAA-1705): 50 µM
